Laboratory results: patent US10076539B2 (priority 2016, dated 2018)
Converted amounts (≈) assume the structure as drawn.

Experiments:
[1] = cited from earlier work; for solubility: 37° C.
[2] = cited from earlier work
blood uric acid [3] = conditions: applicant
Procedure: 2. Preparation of Oral Liquid • Take KOH0.12 g, dissolve in 1 liters of distilled water, and get a concentration of 0.0021 mol/L. Take orally for 50 ml per time and one time per day.
So they began to take oral use tests from January 2016. […] The oral concentration (mol/L) they had tried includes 0.001, 0.0018, 0.0021, 0.0025, 0.003, 0.005 and 0.008 in turn.

high uric acid and gout = conditions: water injection for intravenous drip, high uric acid and gout sufferers
gout = tested on: gout
Procedure: The solution can be also heated to 40-48° C. and then used for footbath. For acute gout attack, if the attack position is easy to soak, such as ankles, toe joints, hands and wrist joints, the solution can also be used to soak such positions. The solution should be embrocated on the attack positions if such positions are not convenient to soak, such as knee joints and elbow joints. […] Drip a cotton swab in the embrocation and embrocate on the attack positions, or drip a dressing in the embrocation and apply on the attack positions. It is very inconvenient to undress when applying topical drug in cold season, then oral drug is an option. […] Have 50 ml of the liquid before meals. For the sufferers of high blood uric acid and acute, intermittent and chronic gout, the embrocation, soak solution and oral liquid can be used separately or concurrently at the same time.

gout attack = tested on: gout attack
Excerpt: 2. Preparation of Embrocation • Take KOH16.8 g, dissolve in 1 liters of distilled water, and get a concentration of 0.3 mol/L.
They dripped a cotton swab into the embrocation (0.1 mol/L) prepared by themself and embrocated on the attack position.

blood uric acid [4] = conditions: applicant; remark: listed apart in the source
Procedure: On December 3, they took a footbath in 45° C. soaking solution (0.01 mol/L) for an hour, and then went to test at Chaohu Hospital of Anhui Medical University.

[5] = December 3, one footbath in 45° C. soaking solution (0.01 mol/L) for an hour
[6] = baseline, day after eating two chicken livers

O=c1[nH]c(=O)c2[nH]c([O-])nc2[nH]1.[Na+] [sodium urate]
solubility [1]: 8.0 mM

O=c1[nH]c(=O)c2[nH]c(=O)[nH]c2[nH]1 [uric acid, 2,6,8-Trihydroxypurine]
dissociation constant (PKa), the 3rd nitrogen dissociation [2]: 10.3 | solubility [1]: 0.5 mM (≈ 84.1 µg/mL)

O=c1[nH]c(=O)c2[nH]c(=O)[nH]c2[nH]1 [potassium urate]
solubility compared with uric acid and sodium urate [1]: much higher than uric acid and sodium urate

[K+].[OH-] [KOH, potassium hydroxide]
blood uric acid after oral use (blood uric acid [3]; April 2016, after oral KOH solution 23 times since January 2016): 351 µmol/L | discomfort / taste of oral liquid (blood uric acid [3]; oral liquid 0.001 mol/L-0.005 mol/L): brought no discomfort to the body | anticipated effect of intravenous drip (high uric acid and gout): immediate effect | consecutive days of application until gout symptoms completely disappear (gout; footbath, oral or embrocation): 2 to 3 days | time to relief of symptoms (pain and swelling during gout attack) (gout; footbath, oral or embrocation): ten | corrosion of the skin (gout; low concentration KOH): will not corrode the skin | side effects (gout; low concentration KOH): no side effects | time until pain was relieved and foot could touch the ground (gout attack; embrocation 0.1 mol/L on first metatarsophalangeal joint, applicant, May 2008): about ten | time until gout symptoms disappeared (gout attack; embrocation 0.1 mol/L, 2-3 times per day, applicant): three | effect on swelling and soreness (forerunner of gout), prevention of onset (gout attack; embrocation, molar concentration of KOH solution 0.1, 0.2, 0.3 and 0.4, 2009-2013, applicant): all were effective | blood uric acid after footbath (blood uric acid [4]; [5]): 486 μmol/LL | urine uric acid after footbath (blood uric acid [4]; [5]): 6.59 mmol/L | blood uric acid after footbath once a day (blood uric acid [4]; December 10, footbath once a day since December 3, soaking solution 0.01 mol/L): 389 µmol/L | drop of blood uric acid (blood uric acid [4]; December 10 versus 495 μmol/L before footbath): 21% | blood uric acid before footbath (blood uric acid [4]; [6]): 495 µmol/L | urine uric acid before footbath (blood uric acid [4]; [6]): 6.3 mmol/L
